A word on the IC50: it is the concentration that gives 50% inhibition. For orientation: inhibition means the percentage by which the read-out fell short of the control.

This passage reports IC50, inhibition and Activity results from ChEMBL document CHEMBL3352279, “Synthesis and Structure-Activity Relationship Study of 5a-Carbasugar Analogues of SL0101” (ACS Med Chem Lett, 2015).

In assay [1] the target is Ribosomal protein S6 kinase alpha-3 (Homo sapiens, UniProt P51812). As to the kind of experiment: Inhibition of RSK2 (unknown origin) assessed as phosphorylation by Western lightning enhanced chemiluminescent reagent/HRP activity assay.
Ribosomal protein S6 kinase alpha-3, sequence (P51812 whole entry): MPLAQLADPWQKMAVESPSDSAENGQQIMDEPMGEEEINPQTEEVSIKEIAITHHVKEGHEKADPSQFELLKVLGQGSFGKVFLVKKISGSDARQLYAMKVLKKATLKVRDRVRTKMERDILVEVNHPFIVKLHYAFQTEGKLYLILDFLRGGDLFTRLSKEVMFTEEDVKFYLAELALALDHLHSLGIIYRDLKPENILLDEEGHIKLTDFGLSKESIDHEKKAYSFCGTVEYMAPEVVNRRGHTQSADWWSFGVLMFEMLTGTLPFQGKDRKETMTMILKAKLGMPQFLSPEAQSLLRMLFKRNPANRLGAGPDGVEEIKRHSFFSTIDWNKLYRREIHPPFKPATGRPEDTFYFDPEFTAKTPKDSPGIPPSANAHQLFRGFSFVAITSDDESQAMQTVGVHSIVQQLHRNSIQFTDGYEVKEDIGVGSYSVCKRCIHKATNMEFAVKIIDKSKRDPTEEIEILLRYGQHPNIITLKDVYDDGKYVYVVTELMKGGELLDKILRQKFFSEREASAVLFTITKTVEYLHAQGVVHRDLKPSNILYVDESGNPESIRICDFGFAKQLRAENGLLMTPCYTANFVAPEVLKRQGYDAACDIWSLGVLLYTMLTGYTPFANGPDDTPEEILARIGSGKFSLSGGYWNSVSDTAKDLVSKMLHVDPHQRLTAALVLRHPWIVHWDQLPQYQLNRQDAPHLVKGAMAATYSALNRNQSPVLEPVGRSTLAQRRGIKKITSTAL
For assay [2], the system named is MCF7. The experiment in a line: Antiproliferative activity against human MCF7 cells at 25 uM after 48 hrs by CellTiterGlo assay. Particulars: MCF7, 48 h. Format: functional. (ATP-based viability assays read luminescence as a measure of living cells.)
Assay [3] has as its system MCF-10A. The experiment in a line: Antiproliferative activity against human MCF10A cells at 25 uM after 48 hrs by CellTiterGlo assay. Format: functional, cell-based.
Assay [4] concerns MCF7. As to the kind of experiment: Antiproliferative activity against human MCF7 cells at 50 uM after 48 hrs by CellTiterGlo assay. The format is functional, cell-based.
For assay [5], the target named is Ribosomal protein S6 kinase alpha-1 (Homo sapiens) (UniProt Q15418). The experiment in a line: Inhibition of RSK in PMA-stimulated human MCF7 cells assessed as increase in phosphorylation of eEF2 at 50 uM by immunoblotting analysis. Format: cell-based. (In western blotting, separated proteins are transferred to a membrane and probed.)
Ribosomal protein S6 kinase alpha-1 (Homo sapiens), sequence (Q15418 whole entry): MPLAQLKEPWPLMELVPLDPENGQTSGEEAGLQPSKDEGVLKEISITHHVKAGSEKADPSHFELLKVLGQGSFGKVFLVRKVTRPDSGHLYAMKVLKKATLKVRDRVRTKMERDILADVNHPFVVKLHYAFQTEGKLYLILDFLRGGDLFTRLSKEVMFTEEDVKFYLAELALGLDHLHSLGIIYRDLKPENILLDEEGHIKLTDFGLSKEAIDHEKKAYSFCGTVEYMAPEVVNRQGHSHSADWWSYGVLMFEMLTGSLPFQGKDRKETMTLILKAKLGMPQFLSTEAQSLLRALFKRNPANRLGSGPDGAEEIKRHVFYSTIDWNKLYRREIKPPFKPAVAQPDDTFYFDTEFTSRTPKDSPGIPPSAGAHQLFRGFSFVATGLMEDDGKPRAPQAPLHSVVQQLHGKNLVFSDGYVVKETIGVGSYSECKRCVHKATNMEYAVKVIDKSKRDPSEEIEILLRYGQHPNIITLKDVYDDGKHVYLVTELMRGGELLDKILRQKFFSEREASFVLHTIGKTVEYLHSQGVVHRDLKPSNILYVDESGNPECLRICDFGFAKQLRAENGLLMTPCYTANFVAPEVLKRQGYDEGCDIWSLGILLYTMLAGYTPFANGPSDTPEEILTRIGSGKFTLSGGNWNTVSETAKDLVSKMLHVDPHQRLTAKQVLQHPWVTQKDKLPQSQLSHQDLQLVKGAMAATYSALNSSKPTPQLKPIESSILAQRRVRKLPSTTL
Assay [6] concerns MCF7. As to the kind of experiment: Reduction in cyclin D1 in PMA-stimulated human MCF7 cells at 50 uM by immunoblotting analysis. Format: functional, cell-based.
The subject of assay [7] is MCF7. As to the kind of experiment: Increase in phosphorylation motif of protein kinase A in human MCF7 cells at 50 uM by immunoblotting analysis. The format is cell-based.
The target of assay [8] is Protein kinase C (PKC) (Homo sapiens) (UniProt O94806+P41743+P17252+P05129+Q05655+P05771+Q05513+Q02156+P24723+Q15139+Q04759). As to the kind of experiment: Effect on phosphorylation motif of protein kinase C in human MCF7 cells at 50 uM by immunoblotting analysis. Format: cell-based.
Assay [9] relates to MCF7. The experiment in a line: Effect on phosphorylation motif of tyrosine kinase in human MCF7 cells at 50 uM by immunoblotting analysis. The format is cell-based.
Assay [10] has as its system MCF-10A. As to the kind of experiment: Antiproliferative activity against human MCF10A cells at 50 uM after 48 hrs by CellTiterGlo assay. The format is functional, cell-based.
The target of assay [11] is Ribosomal protein S6 kinase alpha-1 (Homo sapiens) (UniProt Q15418). As to the kind of experiment: Inhibition of RSK in PMA-stimulated human MCF7 cells assessed as decrease in intensity of band at 65 and 27 kDa at 50 uM by immunoblotting analysis. Format: cell-based.
For assay [12], the system named is MCF7. The experiment in a line: Antiproliferative activity against human MCF7 cells at 100 uM after 48 hrs by CellTiterGlo assay. Format: functional.
In assay [13] the test system is MCF-10A. As to the kind of experiment: Antiproliferative activity against human MCF10A cells at 100 uM after 48 hrs by CellTiterGlo assay. Format: functional, cell-based.
Assay [14] addresses Ribosomal protein S6 kinase alpha-1 (Homo sapiens) (UniProt Q15418). The experiment in a line: Inhibition of RSK in PMA-stimulated human MCF7 cells assessed as increase in phosphorylation of eEF2 at 100 uM by immunoblotting analysis. Format: cell-based.
Assay [15] has as its system MCF7. As to the kind of experiment: Reduction in cyclin D1 in PMA-stimulated human MCF7 cells at 100 uM by immunoblotting analysis. Format: functional, cell-based.
Assay [16] has as its system MCF7. The experiment in a line: Increase in phosphorylation motif of protein kinase A in human MCF7 cells at 100 uM by immunoblotting analysis. Format: cell-based.
The target in assay [17] is Ribosomal protein S6 kinase alpha-1 (Homo sapiens) (UniProt Q15418). The experiment in a line: Inhibition of RSK in PMA-stimulated human MCF7 cells assessed as decrease in intensity of band at 65 and 27 kDa at 100 uM by immunoblotting analysis. Format: cell-based.

Activity calls are given as the source filed them. The calls are words filed in the database; no cut-off is given here.

Consider `CC(=O)O[C@@H]1[C@@H](OC(C)=O)[C@@H](O)[C@H](Oc2c(-c3ccc(O)cc3)oc3cc(O)cc(O)c3c2=O)C[C@H]1C`, for which, in assay [1] (read-out: IC50), the half-inhibitory concentration (IC50) was 0.27 µM. This compound also gave an inhibition at 25 µM in assay [2] of 60%. In addition, the inhibition entry in assay [3], in assay [4] and in assay [10] was “Active” throughout. In [5], the outcome was Active. Further, the outcome in assay [6], in assay [7], in assay [8] and in assay [9] was inactive. Moreover, the inhibition entry in assay [11] was “inactive”.

As to `CC(=O)O[C@@H]1[C@@H](O)[C@@H](O)[C@H](Oc2c(-c3ccc(O)cc3)oc3cc(O)cc(O)c3c2=O)C[C@H]1C`, the IC50 in assay [1] (read-out: IC50) came to 1.23 µM. The inhibition entry in assay [12] and in assay [13] was “Active” each time.

As to `CC(=O)O[C@@H]1[C@@H](O)[C@@H](OC(C)=O)[C@H](Oc2c(-c3ccc(O)cc3)oc3cc(O)cc(O)c3c2=O)C[C@H]1C`, the IC50 in [1] (read-out: IC50) worked out at 1.6 µM. For the same compound, the inhibition entry in assay [4] and in [10] was “Active” throughout. Moreover, in [5], the outcome was Active. The result in assay [6], in [7], in assay [8] and in assay [9] was inactive. Also, the inhibition entry in [11] was “inactive”.

On to `CC(=O)O[C@@H]1[C@H](O)[C@@H](Oc2c(-c3ccc(O)cc3)oc3cc(O)cc(O)c3c2=O)CC[C@H]1OC(C)=O`, for which, in assay [1], the half-maximal inhibitory concentration (IC50) entry is given as “Not Active”.

With `CC(=O)O[C@H]1[C@@H](O)[C@H](Oc2c(-c3ccc(O)cc3)oc3cc(O)cc(O)c3c2=O)CC[C@@H]1OC(C)=O`, in [1] (read-out: IC50), the IC50 is 8.93 µM.

Consider `CC(=O)O[C@@H]1[C@H](O)[C@@H](Oc2c(-c3ccc(O)cc3)oc3cc(O)cc(O)c3c2=O)C[C@H](C)[C@H]1OC(C)=O`, for which the IC50 entry in assay [1] is on record as “Not Active”.

In the case of `CC(=O)O[C@H]1[C@H](O)[C@H](O)[C@@H](Oc2c(-c3ccc(O)cc3)oc3cc(O)cc(O)c3c2=O)C[C@@H]1C`, the IC50 result in [1] is listed as “Not Active”. Besides, the inhibition entry in [12] and in assay [13] was “inactive” throughout.

`CC(=O)O[C@@H]1[C@@H](OC(C)=O)[C@@H](O)[C@H](Oc2c(-c3ccc(O)cc3)oc3cc(O)cc(O)c3c2=O)O[C@H]1C` came in with an inhibition at 100 µM in assay [12] (MCF7, 48 h) of 60%. The outcome in [14] and in assay [16] was Active. The inhibition result in assay [15] and in assay [17] was “Active” throughout.

As to `CC(=O)O[C@H]1[C@@H](O)[C@H](OC(C)=O)[C@@H](C)C[C@@H]1Oc1c(-c2ccc(O)cc2)oc2cc(O)cc(O)c2c1=O`, the IC50 result in assay [1] is recorded as “Not Active”.
